# Assay results as given in US9120849B2 (priority 2000, dated 2015).
# Read-outs that look alike come from different tables or passages of the source.
# Tested on: HIV
# Settings: CEM cells
# Method: This example describes one method of inactivation of the purified virus according to the invention by crosslinking of surface proteins. […] Titrations of the fixative were preformed above and below the concentration recommended by the CDC for inactivation of virus in biological fluids (May 8, 1992/41 (RR-8); 001 CDC Guidelines for the Performance of CD4+ T-Cell Determinations in Persons with Human Immunodeficiency Virus Infection). Initially, purified virus was slowly thawed at 2-8° C. for 6-8 hours to minimize lysis of the virus. Next, while on ice, virus was diluted with cold PBS to a final concentration of approximately 1×10^10 copies/mL (cp/mL). […] The reaction mixtures were then incubated at 2-8° C. for 60 minutes while gently rocking. […] After the addition of glycine the reactions were gently rocked for 2 hr. at 2-8° C. To remove glycine and any excess unquenched fixative each reaction mixture was then dialyzed (10-14K m.w. cutoff) against 1 L PBS (pH 7.4, 2-8° C.) for 4 changes. Dialyzed virus was then transferred into a 15 mL tube and centrifuged for 10 min. at 3,000×g to pellet any precipitated virus. A sample of each supernatant was then tested in cell culture for the presence of infectious virus.
# The modified virus produced as described in Example 2 was tested to ensure the process inactivated the virus. As an illustration, the CEM cell line, obtained from the American Type Culture Collection was used as a host cell for viral infectivity studies. Advantages of using this line are that establishment of in vitro HIV infection requires relatively few virions and that the infection is chronic rather than lytic, facilitating analysis. For these studies, infection is detected and followed using the ZeptoMetrix HIV p24 Antigen EIA (ZeptoMetrix, Buffalo N.Y.).
# CEM cells are cultured in RPMI-1640 containing 10% FBS in 24 well plates Cells are plated at 10^5 cells per well in a 1 ml volume and 100 ul of various dilutions of virus, either treated or untreated, are added to individual wells. Cultures are fed twice weekly by 50% media replacement and culture supernatants are assayed for HIV p24. All cultures initially contain HIV p24. However, in cultures where virus is noninfectious HIV p24 levels decrease over time eventually reaching background levels.
# Different dilutions (1:8,000, 1:80,000, and 1:800,000) of treated virus were then placed into cultures of CEM cells and p24 assays were performed on culture supernatants on days 3, 7, 10, and 14 post-inoculation. Data are expressed as pg/ml of HIV p24 protein in the culture supernatants. The standard curve for the p24 assay is linear from 7.8 pg/ml to 125 pg/ml. HIV p24 concentrations below 7.8 pg/ml are expressed as “<7.8 pg/ml” to indicate sensitivity of the assay, and values above 125 pg/ml are expressed as “>125 pg/ml” since the assay is nonlinear above 125 pg/ml.
substance,measurement,setting,value
paraformaldehyde,HIV p24 protein in culture supernatants,"0.625% paraformaldehyde 60 min, treated HIV diluted 1:8,000, 3 days post-inoculation",71.8 pg/mL
same,HIV p24 protein in culture supernatants,"0.625% paraformaldehyde 60 min, treated HIV diluted 1:8,000, 7 days post-inoculation",109 pg/mL
same,HIV p24 protein in culture supernatants,"0.625% paraformaldehyde 60 min, treated HIV diluted 1:8,000, 10 days post-inoculation",22.9 pg/mL
same,HIV p24 protein in culture supernatants,"0.625% paraformaldehyde 60 min, treated HIV diluted 1:8,000, 14 days post-inoculation",<7.8 pg/mL
same,HIV p24 protein in culture supernatants,"0.625% paraformaldehyde 60 min, treated HIV diluted 1:80,000, 3 days post-inoculation",<7.8 pg/mL
same,HIV p24 protein in culture supernatants,"0.625% paraformaldehyde 60 min, treated HIV diluted 1:80,000, 7 days post-inoculation",<7.8 pg/mL
same,HIV p24 protein in culture supernatants,"0.625% paraformaldehyde 60 min, treated HIV diluted 1:80,000, 10 days post-inoculation",<7.8 pg/mL
same,HIV p24 protein in culture supernatants,"0.625% paraformaldehyde 60 min, treated HIV diluted 1:80,000, 14 days post-inoculation",<7.8 pg/mL
same,HIV p24 protein in culture supernatants,"0.625% paraformaldehyde 60 min, treated HIV diluted 1:800,000, 3 days post-inoculation",<7.8 pg/mL
same,HIV p24 protein in culture supernatants,"0.625% paraformaldehyde 60 min, treated HIV diluted 1:800,000, 7 days post-inoculation",<7.8 pg/mL
same,HIV p24 protein in culture supernatants,"0.625% paraformaldehyde 60 min, treated HIV diluted 1:800,000, 10 days post-inoculation",<7.8 pg/mL
same,HIV p24 protein in culture supernatants,"0.625% paraformaldehyde 60 min, treated HIV diluted 1:800,000, 14 days post-inoculation",<7.8 pg/mL
same,HIV p24 protein in culture supernatants,"1.25% paraformaldehyde 60 min, treated HIV diluted 1:8,000, 3 days post-inoculation",41.9 pg/mL
same,HIV p24 protein in culture supernatants,"1.25% paraformaldehyde 60 min, treated HIV diluted 1:8,000, 7 days post-inoculation",34.2 pg/mL
same,HIV p24 protein in culture supernatants,"1.25% paraformaldehyde 60 min, treated HIV diluted 1:8,000, 10 days post-inoculation",<7.8 pg/mL
same,HIV p24 protein in culture supernatants,"1.25% paraformaldehyde 60 min, treated HIV diluted 1:8,000, 14 days post-inoculation",<7.8 pg/mL
same,HIV p24 protein in culture supernatants,"1.25% paraformaldehyde 60 min, treated HIV diluted 1:80,000, 3 days post-inoculation",<7.8 pg/mL
same,HIV p24 protein in culture supernatants,"1.25% paraformaldehyde 60 min, treated HIV diluted 1:80,000, 7 days post-inoculation",<7.8 pg/mL
same,HIV p24 protein in culture supernatants,"1.25% paraformaldehyde 60 min, treated HIV diluted 1:80,000, 10 days post-inoculation",<7.8 pg/mL
same,HIV p24 protein in culture supernatants,"1.25% paraformaldehyde 60 min, treated HIV diluted 1:80,000, 14 days post-inoculation",<7.8 pg/mL
same,HIV p24 protein in culture supernatants,"1.25% paraformaldehyde 60 min, treated HIV diluted 1:800,000, 3 days post-inoculation",<7.8 pg/mL
same,HIV p24 protein in culture supernatants,"1.25% paraformaldehyde 60 min, treated HIV diluted 1:800,000, 7 days post-inoculation",<7.8 pg/mL
same,HIV p24 protein in culture supernatants,"1.25% paraformaldehyde 60 min, treated HIV diluted 1:800,000, 10 days post-inoculation",<7.8 pg/mL
same,HIV p24 protein in culture supernatants,"1.25% paraformaldehyde 60 min, treated HIV diluted 1:800,000, 14 days post-inoculation",<7.8 pg/mL
same,HIV p24 protein in culture supernatants,"2.5% paraformaldehyde 60 min, treated HIV diluted 1:8,000, 3 days post-inoculation",<7.8 pg/mL
same,HIV p24 protein in culture supernatants,"2.5% paraformaldehyde 60 min, treated HIV diluted 1:8,000, 7 days post-inoculation",<7.8 pg/mL
same,HIV p24 protein in culture supernatants,"2.5% paraformaldehyde 60 min, treated HIV diluted 1:8,000, 10 days post-inoculation",<7.8 pg/mL
same,HIV p24 protein in culture supernatants,"2.5% paraformaldehyde 60 min, treated HIV diluted 1:8,000, 14 days post-inoculation",<7.8 pg/mL
same,HIV p24 protein in culture supernatants,"2.5% paraformaldehyde 60 min, treated HIV diluted 1:80,000, 3 days post-inoculation",<7.8 pg/mL
same,HIV p24 protein in culture supernatants,"2.5% paraformaldehyde 60 min, treated HIV diluted 1:80,000, 7 days post-inoculation",<7.8 pg/mL
same,HIV p24 protein in culture supernatants,"2.5% paraformaldehyde 60 min, treated HIV diluted 1:80,000, 10 days post-inoculation",<7.8 pg/mL
same,HIV p24 protein in culture supernatants,"2.5% paraformaldehyde 60 min, treated HIV diluted 1:80,000, 14 days post-inoculation",<7.8 pg/mL
same,HIV p24 protein in culture supernatants,"2.5% paraformaldehyde 60 min, treated HIV diluted 1:800,000, 3 days post-inoculation",<7.8 pg/mL
same,HIV p24 protein in culture supernatants,"2.5% paraformaldehyde 60 min, treated HIV diluted 1:800,000, 7 days post-inoculation",<7.8 pg/mL
same,HIV p24 protein in culture supernatants,"2.5% paraformaldehyde 60 min, treated HIV diluted 1:800,000, 10 days post-inoculation",<7.8 pg/mL
same,HIV p24 protein in culture supernatants,"2.5% paraformaldehyde 60 min, treated HIV diluted 1:800,000, 14 days post-inoculation",<7.8 pg/mL
same,HIV p24 protein in culture supernatants,"5.0% paraformaldehyde 60 min, treated HIV diluted 1:8,000, 3 days post-inoculation",<7.8 pg/mL
same,HIV p24 protein in culture supernatants,"5.0% paraformaldehyde 60 min, treated HIV diluted 1:8,000, 7 days post-inoculation",<7.8 pg/mL
same,HIV p24 protein in culture supernatants,"5.0% paraformaldehyde 60 min, treated HIV diluted 1:8,000, 10 days post-inoculation",<7.8 pg/mL
same,HIV p24 protein in culture supernatants,"5.0% paraformaldehyde 60 min, treated HIV diluted 1:8,000, 14 days post-inoculation",<7.8 pg/mL
same,HIV p24 protein in culture supernatants,"5.0% paraformaldehyde 60 min, treated HIV diluted 1:80,000, 3 days post-inoculation",<7.8 pg/mL
same,HIV p24 protein in culture supernatants,"5.0% paraformaldehyde 60 min, treated HIV diluted 1:80,000, 7 days post-inoculation",<7.8 pg/mL
same,HIV p24 protein in culture supernatants,"5.0% paraformaldehyde 60 min, treated HIV diluted 1:80,000, 10 days post-inoculation",<7.8 pg/mL
same,HIV p24 protein in culture supernatants,"5.0% paraformaldehyde 60 min, treated HIV diluted 1:80,000, 14 days post-inoculation",<7.8 pg/mL
same,HIV p24 protein in culture supernatants,"5.0% paraformaldehyde 60 min, treated HIV diluted 1:800,000, 3 days post-inoculation",<7.8 pg/mL
same,HIV p24 protein in culture supernatants,"5.0% paraformaldehyde 60 min, treated HIV diluted 1:800,000, 7 days post-inoculation",<7.8 pg/mL
same,HIV p24 protein in culture supernatants,"5.0% paraformaldehyde 60 min, treated HIV diluted 1:800,000, 10 days post-inoculation",<7.8 pg/mL
same,HIV p24 protein in culture supernatants,"5.0% paraformaldehyde 60 min, treated HIV diluted 1:800,000, 14 days post-inoculation",<7.8 pg/mL
